Patent publication US9481673B2, “6-alkynyl-pyridine derivatives” (Boehringer Ingelheim International GmbH, priority 2014, dated 2016)
≈ marks a conversion by molar mass, not a printed value.

Tests used:
P450 2C8 = P450 2C8 (Homo sapiens (Human), UniProt P10632); experiment: Cytochrome P450 isoenzyme inhibition assay, deethylation of Amodiaquine; type: in vitro ADME
cIAP1 BIR3 = cIAP1 BIR3 (Homo sapiens (Human), UniProt Q13490); experiment: cIAP1 BIR3 binding assay (DELFIA), BIR3-SMAC peptide interaction; conditions: (S)-isomers; BIR3 domain 10 nM, SMAC peptide 10 nM; read-out: cIAP1 BIR-3 IC50
[1] = Solubility measurement (DMSO solution precipitation method); type: physicochemical; conditions: aqueous buffer, kinetic from dmso stock; for solubility kinetic at 24 h: (S)-isomers, McIlvaine buffer pH 6.8, 24 h shaking at ambient temperature, read-out: Sol pH 6.8; for solubility at 24 h: McIlvaine buffer, measured examples from WO 2013/127729 (Table 1), pH 6.8
P450 3A4 = P450 3A4 (Homo sapiens (Human), UniProt P08684); experiment: Cytochrome P450 isoenzyme inhibition assay, hydroxylation of Midazolam; type: in vitro ADME
P450 2C9 = P450 2C9 (Homo sapiens (Human), UniProt P11712); experiment: Cytochrome P450 isoenzyme inhibition assay, hydroxylation of Diclofenac; type: in vitro ADME
P450 2C19 = P450 2C19 (Homo sapiens (Human), UniProt P33261); experiment: Cytochrome P450 isoenzyme inhibition assay, hydroxylation of Mephenytoin; type: in vitro ADME
P450 2D6 = P450 2D6 (Homo sapiens (Human), UniProt P10635); experiment: Cytochrome P450 isoenzyme inhibition assay, demethylation of Dextromethorphan; type: in vitro ADME; conditions: measured examples from WO 2013/127729 (Table 1)
[2] = (S)-isomers, human liver microsomes, 37° C.
[3] = measured examples from WO 2013/127729 (Table 1)

Row | SMILES | IC50 (P450 2C8; [2]) [µM] | IC50 (cIAP1 BIR3) [µM] | solubility kinetic at 24 h [1] [µg/mL] | IC50 (P450 3A4; [2]) [µM] | IC50 (P450 2C9; [2]) [µM] | IC50 (P450 2C19; [2]) [µM] | IC50 (P450 2C8; [3]) [µM] | IC50 (P450 2D6) [µM] | IC50 (P450 3A4; [3]) [µM] | IC50 (P450 2C9; [3]) [µM] | IC50 (P450 2C19; [3]) [µM] | solubility at 24 h [1] [µg/mL]
1 | CN[C@@H](C)C(=O)Nc1ccc(-c2c(-c3cnc(C)nc3)nc3cc(C)ccn23)c(C#Cc2ccc3c(C)nccc3c2)n1 [(S)-7, (2S)-N-{5-[7-methyl-2-(2-methylpyrimidin-5-yl)imidazo[1,2-a]-pyridin-3-yl]-6-[2-(1-methylisoquinolin-6-yl)ethynyl]pyridin-2-yl}-2-(methylamino)-propanamide] | > 50 | 0.001 | < 1 | > 50 | > 50 | > 50 |  |  |  |  |  | 
2 | CN[C@@H](C)C(=O)Nc1ccc(-c2c(-c3cccnc3OC)nc3cc(C)ccn23)c(C#Cc2ccc3c(ccc(=O)n3C)c2)n1 [(S)-10, (2S)-N-{5-[2-(2-methoxypyridin-3-yl)-7-methylimidazo[1,2-a]pyridin-3-yl]-6-[2-(1-methyl-2-oxo-1,2-dihydroquinolin-6-yl)-ethynyl]pyridin-2-yl}-2-(methylamino)-propanamide] | 9.3 | 0.001 | 35 (≈ 58.6 µM) | > 50 |  | > 50 |  |  |  |  |  | 
3 | CN[C@@H](C)C(=O)Nc1ccc(-c2c(-c3cncn3C)nc3cc(C)ccn23)c(C#Cc2ccc3c(C)nccc3c2)n1 [(S)-4, (2S)-N-{5-[7-methyl-2-(1-methyl-1H-imidazol-5-yl)-imidazo[1,2-a]pyridin-3-yl]-6-[2-(1-methyl-isoquinolin-6-yl)-ethynyl]pyridin-2-yl}-2-(methylamino)-propanamide] | 9.8 | 0.001 | 39 (≈ 70.3 µM) | > 50 | 27 | 36 |  |  |  |  |  | 
4 | CN[C@@H](C)C(=O)Nc1ccc(-c2c(-c3cccnc3OC)nc3cc(C)ccn23)c(C#Cc2ccc3c(C)nccc3c2)n1 [(S)-1, (2S)-N-{5-[2-(2-methoxypyridin-3-yl)-7-methylimidazo[1,2-a]pyridin-3-yl]-6-[2-(1-methylisoquinolin-6-yl)ethynyl]pyridin-2-yl}-2-(methyl-amino)propanamide] | 11 | 0.001 | 35 (≈ 60.2 µM) | > 50 | 38 | > 50 |  |  |  |  |  | 
5 | CN[C@@H](C)C(=O)Nc1ccc(-c2c(-c3ccc(C)nc3)nc3cc(C)ccn23)c(C#Cc2ccc3c(C)nccc3c2)n1 [(S)-6, (2S)-N-{5-[7-methyl-2-(6-methylpyridin-3-yl)imidazo[1,2-a]-pyridin-3-yl]-6-[2-(1-methylisoquinolin-6-yl)ethynyl]pyridin-2-yl}-2-(methylamino)-propanamide] | 25 | 0.001 | 1 (≈ 1.77 µM) | > 50 | > 50 | > 50 |  |  |  |  |  | 
6 | CN[C@@H](C)C(=O)Nc1ccc(-c2c(-c3cccnc3OC)nc3ccccn23)c(C#Cc2ccc3c(C)nccc3c2)n1 [(S)-16, (2S)-N-{5-[2-(2-methoxypyridin-3-yl)imidazo[1,2-a]-pyridin-3-yl]-6-[2-(1-methylisoquinolin-6-yl)ethynyl]pyridin-2-yl}-2-(methylamino)-propanamide] | 3.4 |  | 17 (≈ 29.9 µM) | > 50 | 21 | > 50 |  |  |  |  |  | 
7 | CN[C@@H](C)C(=O)Nc1ccc(-c2c(-c3ccc(OC)nc3)nc3cc(C)ccn23)c(C#Cc2ccc3c(ccc(=O)n3C)c2)n1 [(S)-14, (2S)-N-{5-[2-(6-methoxypyridin-3-yl)-7-methylimidazo[1,2-a]pyridin-3-yl]-6-[2-(1-methyl-2-oxo-1,2-dihydroquinolin-6-yl)-ethynyl]pyridin-2-yl}-2-(methylamino)-propanamide] | > 50 | 0.001 | < 1 | > 50 | > 50 | > 50 |  |  |  |  |  | 
8 | CNC(C)C(=O)Nc1ccc(-c2c(-c3ccncc3)nc3cc(C)ccn23)c(C#Cc2ccc3nc(C)ccc3c2)n1 (centres unmarked) [Ex 64, reference compound] |  |  |  |  |  |  | 0.5 | 5.2 | 2.1 | 0.4 | 4.3 | 
9 | CN[C@@H](C)C(=O)Nc1ccc(-c2c(-c3cnc(C)nc3)nc3cc(C)ccn23)c(C#Cc2ccc3c(ccc(=O)n3C)c2)n1 [(S)-12, (2S)-N-{5-[7-methyl-2-(2-methylpyrimidin-5-yl)imidazo[1,2-a]-pyridin-3-yl]-6-[2-(1-methyl-2-oxo-1,2-dihydroquinolin-6-yl)-ethynyl]pyridin-2-yl}-2-(methylamino)-propanamide] | > 50 | 0.002 | < 1 | > 50 | > 50 | > 50 |  |  |  |  |  | 

Further lines, results first:

Row | IC50 (P450 2C8; [2]) [µM] | IC50 (cIAP1 BIR3) [µM] | solubility kinetic at 24 h [1] [µg/mL] | IC50 (P450 3A4; [2]) [µM] | IC50 (P450 2C9; [2]) [µM] | IC50 (P450 2C19; [2]) [µM] | IC50 (P450 2C8; [3]) [µM] | IC50 (P450 2D6) [µM] | IC50 (P450 3A4; [3]) [µM] | IC50 (P450 2C9; [3]) [µM] | IC50 (P450 2C19; [3]) [µM] | solubility at 24 h [1] [µg/mL] | SMILES
10 |  |  |  |  |  |  | 0.3 | 2.2 | 2.3 | 0.4 | 4.8 |  | CNC(C)C(=O)Nc1ccc(-c2c(-c3ccncc3)nc3cc(C)ccn23)c(C#Cc2ccc(-c3ccon3)cc2)n1 (centres unmarked) [Ex 82, reference compound]
11 | 4.5 | 0.001 | < 1 | > 50 | > 50 |  |  |  |  |  |  |  | CN[C@@H](C)C(=O)Nc1ccc(-c2c(-c3ccnc(OC)c3)nc3cc(C)ccn23)c(C#Cc2ccc3c(ccc(=O)n3C)c2)n1 [(S)-13, (2S)-N-{5-[2-(2-methoxypyridin-4-yl)-7-methylimidazo[1,2-a]pyridin-3-yl]-6-[2-(1-methyl-2-oxo-1,2-dihydroquinolin-6-yl)-ethynyl]pyridin-2-yl}-2-(methylamino)-propanamide]
12 | 15 | 0.001 | 2 (≈ 3.44 µM) | > 50 | > 50 | > 50 |  |  |  |  |  |  | CN[C@@H](C)C(=O)Nc1ccc(-c2c(-c3ccc(OC)nc3)nc3cc(C)ccn23)c(C#Cc2ccc3c(C)nccc3c2)n1 [(S)-9, (2S)-N-{5-[2-(6-methoxypyridin-3-yl)-7-methylimidazo[1,2-a]pyridin-3-yl]-6-[2-(1-methylisoquinolin-6-yl)ethynyl]pyridin-2-yl}-2-(methyl-amino)propanamide]
13 | 14 | 0.001 | 1 (≈ 1.8 µM) | > 50 | > 50 | > 50 |  |  |  |  |  |  | CN[C@@H](C)C(=O)Nc1ccc(-c2c(-c3cnn(C)c3)nc3cc(C)ccn23)c(C#Cc2ccc3c(C)nccc3c2)n1 [(S)-3, (2S)-N-{5-[7-methyl-2-(1-methyl-1H-pyrazol-4-yl)-imidazo[1,2-a]pyridin-3-yl]-6-[2-(1-methyl-isoquinolin-6-yl)-ethynyl]pyridin-2-yl}-2-(methylamino)-propanamide]
14 | 2.2 | 0.002 | 20 (≈ 33.2 µM) | > 50 | 19 | 32 |  |  |  |  |  |  | CN[C@@H](C)C(=O)Nc1ccc(-c2c(-c3cccnc3OC)nc3cc(Cl)ccn23)c(C#Cc2ccc3c(C)nccc3c2)n1 [(S)-15, (2S)-N-{5-[7-chloro-2-(2-methoxypyridin-3-yl)imidazo[1,2-a]-pyridin-3-yl]-6-[2-(1-methylisoquinolin-6-yl)ethynyl]pyridin-2-yl}-2-(methylamino)-propanamide]
15 |  |  |  |  |  |  | 1.7 | 2.7 | 3 | 4.8 | 16 | 60 (≈ 123 µM) | CNC(C)C(=O)Nc1ccc(-c2c(-c3ccncc3)nc3cc(C)ccn23)c(C#Cc2ccccc2)n1 (centres unmarked) [Ex 185, reference compound]
16 | 1.6 | 0.001 | < 1 | > 50 | > 50 | 38 |  |  |  |  |  |  | CN[C@@H](C)C(=O)Nc1ccc(-c2c(-c3ccnc(OC)c3)nc3cc(C)ccn23)c(C#Cc2ccc3c(C)nccc3c2)n1 [(S)-8, (2S)-N-{5-[2-(2-methoxypyridin-4-yl)-7-methylimidazo[1,2-a]pyridin-3-yl]-6-[2-(1-methylisoquinolin-6-yl)ethynyl]pyridin-2-yl}-2-(methyl-amino)propanamide]
17 |  |  |  |  |  |  | 4.9 | 3.3 | > 50 | 0.7 | 2.9 |  | CNC(C)C(=O)Nc1ccc(-c2c(-c3ccncc3)nc3cc(C)ccn23)c(C#Cc2ccc3c(c2)OCC(=O)N3C)n1 (centres unmarked) [Ex 94, reference compound]
18 | 1.3 | 0.002 | < 1 | > 50 | > 50 | > 50 |  |  |  |  |  |  | CN[C@@H](C)C(=O)Nc1ccc(-c2c(-c3cccnc3C)nc3cc(C)ccn23)c(C#Cc2ccc3c(C)nccc3c2)n1 [(S)-5, (2S)-N-{5-[7-methyl-2-(2-methylpyridin-3-yl)imidazo[1,2-a]-pyridin-3-yl]-6-[2-(1-methylisoquinolin-6-yl)ethynyl]pyridin-2-yl}-2-(methylamino)-propanamide]
19 |  |  |  |  |  |  | 1.2 | 3.4 | 4 | 0.9 | 2.8 | 8 (≈ 14.1 µM) | CNC(C)C(=O)Nc1ccc(-c2c(-c3ccncc3)nc3cc(C)ccn23)c(C#Cc2ccc3c(ccc(=O)n3C)c2)n1 (centres unmarked) [Ex 81, reference compound]
20 | 15 | 0.001 |  | 46 | > 50 | 14 |  |  |  |  |  |  | CN[C@@H](C)C(=O)Nc1ccc(-c2c(-c3ccnc(C)c3)nc3cc(C)ccn23)c(C#Cc2ccccc2)n1 [(S)-11, (2S)-N-{5-[7-methyl-2-(2-methylpyridin-4-yl)imidazo[1,2-a]-pyridin-3-yl]-6-(2-phenylethynyl)pyridin-2-yl}-2-(methyl-amino)propanamide]
